Reference: ChEMBL document CHEMBL5537180, “Discovery of Novel Aminobutanoic Acid-Based ASCT2 Inhibitors for the Treatment of Non-Small-Cell Lung Cancer” (J Med Chem, 2024)
Active and inactive are the calls of the source. The rule behind the calls is not given here.

Columns and labels:
NSCLC [1] = assay: Antiproliferative activity against human NSCLC cells cultured as 2422 organoids assessed as cell viability incubated for 96 hrs by Celltiter-glo viability assay; format: functional, cell-based
A549 [2] = assay: Induction of autophagy in human A549 cells assessed as downregulation of p70S6K level at 5 to 10 uM measured after 24 hrs by Western blot analysis; format: functional, cell-based; settings: dose 5-10 µM
[3] = molecular target: T1, Neutral amino acid transporter B(0) (Homo sapiens) (UniProt Q15758); assay: Inhibition of ASCT2 in HEK293 cells assessed as reduction in [13C]-Gln uptake at 50 uM relative to control; format: cell-based
T1 sequence (whole entry): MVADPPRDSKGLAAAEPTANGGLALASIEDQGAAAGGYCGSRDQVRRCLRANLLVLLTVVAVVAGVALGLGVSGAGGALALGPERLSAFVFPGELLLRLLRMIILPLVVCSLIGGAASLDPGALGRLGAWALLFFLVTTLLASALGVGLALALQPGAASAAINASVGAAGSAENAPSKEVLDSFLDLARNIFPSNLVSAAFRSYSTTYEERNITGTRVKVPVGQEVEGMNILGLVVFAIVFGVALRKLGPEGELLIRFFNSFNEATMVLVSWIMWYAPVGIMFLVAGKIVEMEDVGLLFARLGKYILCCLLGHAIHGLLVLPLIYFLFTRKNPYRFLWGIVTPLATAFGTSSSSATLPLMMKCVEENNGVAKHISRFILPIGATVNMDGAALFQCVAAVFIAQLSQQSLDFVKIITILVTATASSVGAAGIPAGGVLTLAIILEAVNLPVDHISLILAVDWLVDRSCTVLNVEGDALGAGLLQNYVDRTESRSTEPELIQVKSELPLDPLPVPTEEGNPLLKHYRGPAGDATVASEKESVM

[4] = Metabolic stability in rat liver microsomes assessed as half life; format: ADME, Microsome
[5] = MRT (0 to infinity) in Sprague-Dawley rat at 10 mg/kg, ip incubated for 24 hrs by LC-MS/MS analysis; format: ADME, organism-based; settings: in vivo
NSCLC [6] = assay: Antiproliferative activity against human NSCLC cells cultured as HCC827 organoids assessed as cell viability incubated for 96 hrs by Celltiter-glo viability assay; format: functional, cell-based
[7] = Toxicity in BALB/c nude mouse assessed as effect on spleen at 25 to 50 mg/kg, ip measured after 3 weeks by H and E staining based analysis; format: organism-based; settings: in vivo, 504 h, dose 25-50 mg/kg
[8] = Toxicity in BALB/c nude mouse assessed as effect on kidney at 25 to 50 mg/kg, ip measured after 3 weeks by H and E staining based analysis; format: organism-based; settings: in vivo, 504 h, dose 25-50 mg/kg
A549 [9] = assay: Inhibition of Gln uptake in human A549 cells assessed as reduction in succinate level incubated for 24 hrs by LC-MS/MS analysis; format: functional, cell-based
A549 [10] = assay: Induction of autophagy in human A549 cells assessed as downregulation of ERK expression at 5 to 10 uM measured after 24 hrs by Western blot analysis; format: functional, cell-based; settings: dose 5-10 µM
A549 [11] = assay: Inhibition of AKT/mTORC signalling in human A549 cells assessed as decrease in p70S6K level at 5 to 10 uM measured after 24 hrs by Western blot analysis; format: cell-based; settings: dose 5-10 µM
A549 [12] = assay: Inhibition of colony formation in human A549 cells measured after 7 to 10 days by crystal violet staining analysis; format: functional, cell-based; settings: dose 5-10 µM, time 7-10 day
[13] = AUC (0 to infinity) in Sprague-Dawley rat at 10 mg/kg, ip incubated for 24 hrs by LC-MS/MS analysis; format: ADME, organism-based; settings: in vivo
A549 [14] = assay: Induction of apoptosis in human A549 cells assessed as caspase 9 activation at 5 to 10 uM incubated for 24 hrs by Western blot analysis; format: functional, cell-based; settings: dose 5-10 µM
A549 [15] = assay: Induction of oxidative stress in human A549 cells assessed as upregulation of ROS production incubated for 24 hrs by DCFH-DA staining based flow cytometry analysis; format: functional, cell-based; settings: dose 5-10 µM
NSCLC [16] = assay: Antiproliferative activity against human NSCLC cells cultured as H1975 organoids assessed as cell viability incubated for 96 hrs by Celltiter-glo viability assay; format: functional, cell-based
Cell membrane = assay: Induction of mitochondrial membrane potential loss in human A549 cells assessed as […] aggregates at 10 uM incubated for 24 hrs by JC-1 staining based flow cytometry analysis (reference value: 93.8%); format: cell membranes
A549 [17] = assay: Inhibition of Gln uptake in human A549 cells assessed as reduction in malate level incubated for 24 hrs by LC-MS/MS analysis; format: functional, cell-based
[18] = molecular target: Large neutral amino acids transporter small subunit 1 (Homo sapiens) (UniProt Q01650); assay: Inhibition of LAT1 (unknown origin) overexpressed in human A549 cells assessed as reduction in [13C]-Gln uptake preincubated for 5 mins followed by substrate addition and measured after 15 mins; format: cell-based; settings: time 20.0 min
A549 [19] = assay: Induction of apoptosis in human A549 cells assessed as downregulation of c-Myc expression at 5 to 10 uM incubated for 24 hrs by Western blot analysis; format: functional, cell-based; settings: dose 5-10 µM
A549 [20] = assay: Induction of autophagy in human A549 cells assessed as increase in LC3 II expression at 5 to 10 uM measured after 24 hrs by Western blot analysis; format: functional, cell-based; settings: dose 5-10 µM
A549 [21] = assay: Induction of autophagy in human A549 cells assessed as downregulation of p62 level at 5 to 10 uM measured after 24 hrs by Western blot analysis; format: functional, cell-based; settings: dose 5-10 µM
[22] = molecular target: Large neutral amino acids transporter small subunit 1 (Homo sapiens) (UniProt Q01650); assay: Inhibition of LAT1 (unknown origin) overexpressed in HEK293 cells assessed as reduction in [13C]-Gln uptake preincubated for 5 mins followed by substrate addition and measured after 15 mins; format: cell-based; settings: time 20.0 min
A549 [23] = assay: Induction of autophagy in human A549 cells assessed as downregulation of AKT phosphorylation level at 5 to 10 uM measured after 24 hrs by Western blot analysis; format: functional, cell-based; settings: dose 5-10 µM
A549 [24] = assay: Antitumor activity against human A549 cells xenografted in BALB/c nude mouse assessed as tumor growth inhibition at 25 mg/kg, ip measured daily for 3 weeks relative to control; format: functional; settings: A549, 504 h, read-out: TGI
[25] = molecular target: T2, Neutral amino acid transporter B(0) (Homo sapiens, UniProt Q15758); assay: Inhibition of ASCT2 in HEK293 cells assessed as reduction in glutamine uptake preincubated for 5 mins followed by substrate addition and measured after 15 mins; format: cell-based
T2 sequence (Q15758 whole entry): T1 sequence (whole entry)

A549 [26] = assay: Antitumor activity against human A549 cells xenografted in BALB/c nude mouse assessed as decrease in tumor weight at 25 to 50 mg/kg, ip measured daily for 3 weeks; format: functional, organism-based; settings: dose 25-50 mg/kg
[27] = Toxicity in BALB/c nude mouse assessed as effect on heart at 25 to 50 mg/kg, ip measured after 3 weeks by H and E staining based analysis; format: organism-based; settings: in vivo, 504 h, dose 25-50 mg/kg
A549 [28] = assay: Inhibition of AKT/mTORC signalling in human A549 cells assessed as decrease in mTORC1 level at 5 to 10 uM measured after 24 hrs by Western blot analysis; format: cell-based; settings: dose 5-10 µM
[29] = Toxicity in BALB/c nude mouse assessed as effect on liver at 25 to 50 mg/kg, ip measured after 3 weeks by H and E staining based analysis; format: organism-based; settings: in vivo, 504 h, dose 25-50 mg/kg
A549 [30] = assay: Inhibition of Gln uptake in human A549 cells assessed as reduction in citrate level incubated for 24 hrs by LC-MS/MS analysis; format: functional, cell-based

Large neutral amino acids transporter small subunit 1 (Homo sapiens), sequence (Q01650 whole entry): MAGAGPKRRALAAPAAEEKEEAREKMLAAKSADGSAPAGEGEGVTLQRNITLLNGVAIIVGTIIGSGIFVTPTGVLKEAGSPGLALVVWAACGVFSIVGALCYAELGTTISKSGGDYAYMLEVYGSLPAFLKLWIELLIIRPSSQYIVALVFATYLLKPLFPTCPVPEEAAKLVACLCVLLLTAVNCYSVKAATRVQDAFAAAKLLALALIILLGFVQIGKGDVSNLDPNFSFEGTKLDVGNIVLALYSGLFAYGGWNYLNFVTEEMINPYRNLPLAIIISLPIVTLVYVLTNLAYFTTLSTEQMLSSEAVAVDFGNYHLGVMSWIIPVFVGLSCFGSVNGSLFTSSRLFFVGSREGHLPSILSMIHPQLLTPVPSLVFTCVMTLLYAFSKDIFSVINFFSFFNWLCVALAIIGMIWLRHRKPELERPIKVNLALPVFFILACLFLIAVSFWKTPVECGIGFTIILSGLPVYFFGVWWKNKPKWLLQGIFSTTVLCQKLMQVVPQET

SMILES	IC50 (NSCLC [1]) [µM]	Activity (A549 [2])	inhibition [3] [%]	half-life [4] [h]	MRT inf [5] [h]	IC50 (NSCLC [6]) [µM]	Activity [7]	Activity [8]	inhibition (A549 [9])	Activity (A549 [10])	inhibition (A549 [11])	inhibition (A549 [12])	AUC(0-inf) [13] [ng·h/mL]	Activity (A549 [14])	Activity (A549 [15])	IC50 (NSCLC [16]) [µM]	Activity (Cell membrane) [%]	inhibition (A549 [17])	inhibition [18]	Activity (A549 [19])	further results
CC(C)(C)c1ccc(OCC#Cc2ccccc2)c(CN(CC[C@H](N)C(=O)O)Cc2cc(C(C)(C)C)ccc2OCC#Cc2ccccc2)c1	0.12	Active	98.3	2.78	20.7	2.36	Toxic	Toxic	Active	Active	Active	Dose-Dependent Effect	14500	Active	Dose-Dependent Effect	1.09	60.3	Active	inactive	Active	Activity (A549 [20]): Active; Activity (A549 [21]): Active; inhibition [22]: inactive; Activity (A549 [23]): Active; inhibition in vivo at 25 mg/kg (A549 [24]): 70%; IC50 [25]: 5.14 µM; Activity (A549 [26]): Active; Activity [27]: Toxic; inhibition (A549 [28]): Active; Activity [29]: Toxic; inhibition (A549 [30]): Active
N[C@@H](CCN(Cc1ccccc1OCC#Cc1ccc(Cl)cc1)Cc1ccccc1OCC#Cc1ccc(Cl)cc1)C(=O)O	7.34	Active	93.2	0.619	13.7	22.4	Toxic	Toxic	Active	Active	Active	Dose-Dependent Effect	2820	Active	Dose-Dependent Effect	8.45	82.4	Active	inactive	Active	Activity (A549 [20]): Active; Activity (A549 [21]): Active; inhibition [22]: inactive; Activity (A549 [23]): Active; inhibition in vivo at 25 mg/kg (A549 [24]): 65%; IC50 [25]: 3.5 µM; Activity (A549 [26]): Active; Activity [27]: Toxic; inhibition (A549 [28]): Active; Activity [29]: Toxic; inhibition (A549 [30]): Active
